Reference: ChEMBL document CHEMBL5653615 (J Biol Chem, 2013)
Activity calls are given as the source filed them. The rule behind the calls is not given here.

How the values were obtained:
[1] = molecular target: Death-associated protein kinase 2 (Homo sapiens) (UniProt Q9UIK4); assay: Inhibition of human DAPK2 at 500 nM by HotSpot assay relative to control
[2] = molecular target: T1, Aurora kinase A (Homo sapiens) (UniProt O14965); assay: Inhibition of human Aurora A at 500 nM by HotSpot assay relative to control
T1 sequence (whole entry): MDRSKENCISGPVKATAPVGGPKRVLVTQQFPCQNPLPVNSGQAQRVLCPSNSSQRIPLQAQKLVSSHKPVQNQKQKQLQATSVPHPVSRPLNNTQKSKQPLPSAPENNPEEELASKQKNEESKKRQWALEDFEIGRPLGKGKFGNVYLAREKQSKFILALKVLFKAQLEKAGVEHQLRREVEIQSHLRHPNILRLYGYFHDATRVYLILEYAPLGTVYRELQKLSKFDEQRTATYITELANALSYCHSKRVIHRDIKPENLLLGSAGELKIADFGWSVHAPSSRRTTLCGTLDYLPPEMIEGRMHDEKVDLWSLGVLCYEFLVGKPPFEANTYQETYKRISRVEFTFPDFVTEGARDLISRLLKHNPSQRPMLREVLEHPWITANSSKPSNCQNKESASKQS

[3] = Inhibition of unphosphorylated human Insulin receptor (978 to 1283 residues) C981S mutant kinase domain expressed in baculovirus infected Sf9 cells incubated for 1 hr by [gamma-33P]ATP assay
[4] = molecular target: T2, Calcium/calmodulin-dependent protein kinase type IV (Homo sapiens) (UniProt Q16566); assay: Inhibition of human CAMK4 at 500 nM by HotSpot assay relative to control
T2 sequence (whole entry): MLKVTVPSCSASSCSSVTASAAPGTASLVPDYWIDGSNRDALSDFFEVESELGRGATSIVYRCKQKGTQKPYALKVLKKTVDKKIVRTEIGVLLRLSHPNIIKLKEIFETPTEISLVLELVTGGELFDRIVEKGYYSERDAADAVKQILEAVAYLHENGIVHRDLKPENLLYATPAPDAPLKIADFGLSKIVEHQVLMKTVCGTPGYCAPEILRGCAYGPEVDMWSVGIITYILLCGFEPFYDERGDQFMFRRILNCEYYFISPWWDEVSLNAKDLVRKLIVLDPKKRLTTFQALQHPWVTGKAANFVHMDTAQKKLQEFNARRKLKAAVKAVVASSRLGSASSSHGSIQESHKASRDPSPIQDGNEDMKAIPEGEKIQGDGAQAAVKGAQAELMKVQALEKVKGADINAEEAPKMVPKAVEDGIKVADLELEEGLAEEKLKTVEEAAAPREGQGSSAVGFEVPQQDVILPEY

[5] = molecular target: Epidermal growth factor receptor (Homo sapiens) (UniProt P00533); assay: Inhibition of human EGFR at 500 nM by HotSpot assay relative to control
[6] = molecular target: Rho-associated protein kinase 1 (Homo sapiens) (UniProt Q13464); assay: Inhibition of human ROCK1 at 500 nM by HotSpot assay relative to control
[7] = molecular target: Receptor tyrosine-protein kinase erbB-2 (Homo sapiens) (UniProt P04626); assay: Inhibition of human ERBB2 at 500 nM by HotSpot assay relative to control
[8] = molecular target: SRSF protein kinase 1 (Homo sapiens) (UniProt Q96SB4); assay: Inhibition of human SRPK1 at 500 nM by HotSpot assay relative to control
[9] = molecular target: Dual specificity protein kinase CLK4 (Homo sapiens) (UniProt Q9HAZ1); assay: Inhibition of human CLK4 at 500 nM by HotSpot assay relative to control
[10] = molecular target: Dual specificity tyrosine-phosphorylation-regulated kinase 1A (Homo sapiens) (UniProt Q13627); assay: Inhibition of human DYRK1 at 500 nM by HotSpot assay relative to control
[11] = molecular target: G protein-coupled receptor kinase 5 (Homo sapiens) (UniProt P34947); assay: Inhibition of human GRK5 at 500 nM by HotSpot assay relative to control
[12] = molecular target: T3, Protein kinase C epsilon type (Homo sapiens) (UniProt Q02156); assay: Inhibition of human PKCepsilon at 500 nM by HotSpot assay relative to control
T3 sequence (whole entry): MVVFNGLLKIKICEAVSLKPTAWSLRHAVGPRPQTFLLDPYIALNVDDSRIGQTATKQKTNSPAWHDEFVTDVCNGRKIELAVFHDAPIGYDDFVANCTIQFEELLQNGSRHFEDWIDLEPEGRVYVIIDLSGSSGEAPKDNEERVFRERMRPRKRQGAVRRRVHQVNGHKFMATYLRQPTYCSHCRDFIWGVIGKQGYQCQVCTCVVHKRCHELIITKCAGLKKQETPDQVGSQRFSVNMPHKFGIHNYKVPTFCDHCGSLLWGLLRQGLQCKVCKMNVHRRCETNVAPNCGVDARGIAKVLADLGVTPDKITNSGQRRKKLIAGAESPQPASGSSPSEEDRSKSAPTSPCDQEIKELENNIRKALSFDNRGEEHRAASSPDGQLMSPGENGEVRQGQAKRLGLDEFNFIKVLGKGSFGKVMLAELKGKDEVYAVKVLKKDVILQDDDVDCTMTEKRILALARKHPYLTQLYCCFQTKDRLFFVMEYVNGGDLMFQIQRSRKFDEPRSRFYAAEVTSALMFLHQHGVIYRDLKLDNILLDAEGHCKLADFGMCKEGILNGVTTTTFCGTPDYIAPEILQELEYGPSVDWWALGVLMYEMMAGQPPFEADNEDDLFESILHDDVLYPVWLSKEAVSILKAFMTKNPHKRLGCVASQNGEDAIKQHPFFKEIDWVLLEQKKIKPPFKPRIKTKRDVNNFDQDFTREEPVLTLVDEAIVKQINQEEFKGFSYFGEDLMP

[13] = molecular target: Serine/threonine-protein kinase MARK1 (Homo sapiens) (UniProt Q9P0L2); assay: Inhibition of human MARK1 at 500 nM by HotSpot assay relative to control
[14] = molecular target: Casein kinase II subunit alpha' (Homo sapiens) (UniProt P19784); assay: Inhibition of human CK2a2 at 500 nM by HotSpot assay relative to control
[15] = molecular target: Tyrosine-protein kinase Fer (Homo sapiens) (UniProt P16591); assay: Inhibition of human FER at 500 nM by HotSpot assay relative to control
[16] = molecular target: MAP kinase-activated protein kinase 2 (Homo sapiens) (UniProt P49137); assay: Inhibition of human MAPKAPK2 at 500 nM by HotSpot assay relative to control
[17] = molecular target: PAS domain-containing serine/threonine-protein kinase (Homo sapiens) (UniProt Q96RG2); assay: Inhibition of human PASK at 500 nM by HotSpot assay relative to control
[18] = molecular target: Protein-tyrosine kinase 2-beta (Homo sapiens) (UniProt Q14289); assay: Inhibition of human PYK2 at 500 nM by HotSpot assay relative to control

Sequence of Dual specificity protein kinase CLK4 (Homo sapiens) (Q9HAZ1 whole entry, looked up): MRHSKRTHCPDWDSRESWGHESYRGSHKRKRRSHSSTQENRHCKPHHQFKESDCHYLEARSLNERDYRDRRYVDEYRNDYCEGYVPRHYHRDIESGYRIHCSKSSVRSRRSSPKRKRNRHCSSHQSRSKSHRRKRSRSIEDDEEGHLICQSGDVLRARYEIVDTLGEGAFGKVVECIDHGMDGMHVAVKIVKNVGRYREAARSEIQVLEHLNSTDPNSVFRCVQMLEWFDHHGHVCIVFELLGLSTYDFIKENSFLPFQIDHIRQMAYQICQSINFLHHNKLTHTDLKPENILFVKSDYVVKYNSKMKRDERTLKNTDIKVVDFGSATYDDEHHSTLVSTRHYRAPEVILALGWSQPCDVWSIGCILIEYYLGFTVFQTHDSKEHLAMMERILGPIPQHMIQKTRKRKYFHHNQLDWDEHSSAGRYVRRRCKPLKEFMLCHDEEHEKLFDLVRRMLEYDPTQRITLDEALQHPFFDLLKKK
Sequence of Receptor tyrosine-protein kinase erbB-2 (Homo sapiens) (P04626 whole entry): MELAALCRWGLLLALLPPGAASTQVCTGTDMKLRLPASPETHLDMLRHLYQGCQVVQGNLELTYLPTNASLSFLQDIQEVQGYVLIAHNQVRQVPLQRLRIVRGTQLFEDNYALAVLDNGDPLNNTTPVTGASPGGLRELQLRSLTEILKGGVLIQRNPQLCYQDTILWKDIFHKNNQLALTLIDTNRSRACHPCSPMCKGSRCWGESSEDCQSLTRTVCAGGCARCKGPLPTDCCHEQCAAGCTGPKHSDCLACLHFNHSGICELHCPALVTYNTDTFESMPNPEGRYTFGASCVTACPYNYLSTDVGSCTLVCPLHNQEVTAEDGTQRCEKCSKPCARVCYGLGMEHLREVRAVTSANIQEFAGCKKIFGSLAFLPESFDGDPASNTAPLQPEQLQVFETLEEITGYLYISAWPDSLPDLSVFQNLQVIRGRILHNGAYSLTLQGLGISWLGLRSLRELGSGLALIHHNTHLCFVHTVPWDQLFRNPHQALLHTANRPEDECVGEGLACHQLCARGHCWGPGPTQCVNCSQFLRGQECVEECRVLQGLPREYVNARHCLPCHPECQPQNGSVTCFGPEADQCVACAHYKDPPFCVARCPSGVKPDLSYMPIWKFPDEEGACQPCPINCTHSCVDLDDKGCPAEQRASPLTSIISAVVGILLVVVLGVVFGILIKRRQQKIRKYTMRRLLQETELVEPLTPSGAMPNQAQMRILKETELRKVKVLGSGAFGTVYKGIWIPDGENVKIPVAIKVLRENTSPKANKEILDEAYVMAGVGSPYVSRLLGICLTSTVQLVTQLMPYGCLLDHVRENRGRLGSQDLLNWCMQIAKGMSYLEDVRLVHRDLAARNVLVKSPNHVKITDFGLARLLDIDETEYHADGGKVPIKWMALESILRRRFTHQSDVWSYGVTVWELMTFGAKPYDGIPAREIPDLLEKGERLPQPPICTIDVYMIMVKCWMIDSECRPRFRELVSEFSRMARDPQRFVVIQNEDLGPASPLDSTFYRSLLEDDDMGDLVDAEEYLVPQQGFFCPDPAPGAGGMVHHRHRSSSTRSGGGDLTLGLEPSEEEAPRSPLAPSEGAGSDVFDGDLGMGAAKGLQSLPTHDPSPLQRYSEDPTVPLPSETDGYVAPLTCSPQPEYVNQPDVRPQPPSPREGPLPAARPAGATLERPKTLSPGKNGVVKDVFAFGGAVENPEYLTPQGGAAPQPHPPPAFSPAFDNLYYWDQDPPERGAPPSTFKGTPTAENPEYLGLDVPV
Sequence of MAP kinase-activated protein kinase 2 (Homo sapiens) (P49137 whole entry, looked up, the tested form may be a part): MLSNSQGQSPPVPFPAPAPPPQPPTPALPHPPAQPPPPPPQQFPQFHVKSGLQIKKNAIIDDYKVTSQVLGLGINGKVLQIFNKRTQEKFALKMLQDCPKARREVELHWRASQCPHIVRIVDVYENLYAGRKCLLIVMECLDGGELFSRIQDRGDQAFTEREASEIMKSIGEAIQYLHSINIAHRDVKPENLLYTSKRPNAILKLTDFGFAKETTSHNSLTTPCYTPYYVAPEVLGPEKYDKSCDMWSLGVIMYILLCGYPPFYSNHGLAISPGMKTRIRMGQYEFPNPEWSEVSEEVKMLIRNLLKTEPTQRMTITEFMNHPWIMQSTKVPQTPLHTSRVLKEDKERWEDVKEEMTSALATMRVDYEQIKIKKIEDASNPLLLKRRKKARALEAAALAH
Sequence of G protein-coupled receptor kinase 5 (Homo sapiens) (P34947 whole entry, looked up): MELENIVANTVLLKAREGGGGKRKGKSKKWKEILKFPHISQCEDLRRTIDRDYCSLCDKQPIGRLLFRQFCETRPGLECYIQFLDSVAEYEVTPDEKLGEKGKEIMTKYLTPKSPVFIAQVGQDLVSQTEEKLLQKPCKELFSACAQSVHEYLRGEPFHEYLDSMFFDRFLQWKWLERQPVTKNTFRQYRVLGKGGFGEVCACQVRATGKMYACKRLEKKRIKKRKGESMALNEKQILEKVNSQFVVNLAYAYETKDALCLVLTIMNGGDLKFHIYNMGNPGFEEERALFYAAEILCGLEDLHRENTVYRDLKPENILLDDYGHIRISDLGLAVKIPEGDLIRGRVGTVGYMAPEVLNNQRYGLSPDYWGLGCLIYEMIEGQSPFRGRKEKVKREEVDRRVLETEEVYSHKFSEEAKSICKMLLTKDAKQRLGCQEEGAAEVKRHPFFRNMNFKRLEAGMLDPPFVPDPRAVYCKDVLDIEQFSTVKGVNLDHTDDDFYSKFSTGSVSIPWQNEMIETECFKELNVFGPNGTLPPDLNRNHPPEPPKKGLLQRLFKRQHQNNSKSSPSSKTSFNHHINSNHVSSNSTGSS
Sequence of SRSF protein kinase 1 (Homo sapiens) (Q96SB4 whole entry): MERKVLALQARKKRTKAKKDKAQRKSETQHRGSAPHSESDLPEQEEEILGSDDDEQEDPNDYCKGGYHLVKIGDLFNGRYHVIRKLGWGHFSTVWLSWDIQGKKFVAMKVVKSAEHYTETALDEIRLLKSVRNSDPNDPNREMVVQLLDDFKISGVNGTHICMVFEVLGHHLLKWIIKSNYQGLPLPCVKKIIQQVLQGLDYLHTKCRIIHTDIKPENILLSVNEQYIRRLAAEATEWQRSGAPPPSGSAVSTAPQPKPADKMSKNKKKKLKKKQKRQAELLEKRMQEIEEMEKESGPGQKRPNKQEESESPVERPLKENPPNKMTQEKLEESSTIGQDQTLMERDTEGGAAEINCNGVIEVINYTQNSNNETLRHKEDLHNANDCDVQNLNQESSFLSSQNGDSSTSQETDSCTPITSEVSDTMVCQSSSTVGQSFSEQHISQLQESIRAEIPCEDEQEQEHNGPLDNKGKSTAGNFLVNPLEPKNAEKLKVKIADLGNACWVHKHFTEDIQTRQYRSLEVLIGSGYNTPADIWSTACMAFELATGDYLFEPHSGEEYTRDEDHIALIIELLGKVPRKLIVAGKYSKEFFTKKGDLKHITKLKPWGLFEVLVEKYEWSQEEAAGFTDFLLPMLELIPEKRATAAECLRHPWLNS
Sequence of Tyrosine-protein kinase Fer (Homo sapiens) (P16591 whole entry, looked up): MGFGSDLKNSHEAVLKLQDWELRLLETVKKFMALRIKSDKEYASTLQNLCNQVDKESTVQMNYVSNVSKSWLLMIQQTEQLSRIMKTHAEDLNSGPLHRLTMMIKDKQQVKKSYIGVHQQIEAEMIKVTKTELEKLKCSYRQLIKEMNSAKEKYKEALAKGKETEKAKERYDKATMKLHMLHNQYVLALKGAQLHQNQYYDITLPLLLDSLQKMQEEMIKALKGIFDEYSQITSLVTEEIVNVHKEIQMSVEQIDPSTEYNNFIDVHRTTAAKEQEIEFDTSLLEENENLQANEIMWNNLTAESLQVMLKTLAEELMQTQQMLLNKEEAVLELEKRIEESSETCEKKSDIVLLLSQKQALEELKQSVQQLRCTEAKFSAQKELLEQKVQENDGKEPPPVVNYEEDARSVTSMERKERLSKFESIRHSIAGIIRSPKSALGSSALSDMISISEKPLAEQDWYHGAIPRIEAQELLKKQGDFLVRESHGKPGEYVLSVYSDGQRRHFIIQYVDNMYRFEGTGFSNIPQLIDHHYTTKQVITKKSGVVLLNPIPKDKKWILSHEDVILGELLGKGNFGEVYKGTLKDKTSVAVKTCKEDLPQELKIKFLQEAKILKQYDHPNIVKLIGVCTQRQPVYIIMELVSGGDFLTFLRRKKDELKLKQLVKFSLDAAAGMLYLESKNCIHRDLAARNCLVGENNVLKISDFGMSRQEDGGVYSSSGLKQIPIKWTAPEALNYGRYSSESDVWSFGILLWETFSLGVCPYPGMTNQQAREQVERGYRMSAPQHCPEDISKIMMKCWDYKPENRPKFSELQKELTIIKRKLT
Sequence of Serine/threonine-protein kinase MARK1 (Homo sapiens) (Q9P0L2 whole entry, looked up): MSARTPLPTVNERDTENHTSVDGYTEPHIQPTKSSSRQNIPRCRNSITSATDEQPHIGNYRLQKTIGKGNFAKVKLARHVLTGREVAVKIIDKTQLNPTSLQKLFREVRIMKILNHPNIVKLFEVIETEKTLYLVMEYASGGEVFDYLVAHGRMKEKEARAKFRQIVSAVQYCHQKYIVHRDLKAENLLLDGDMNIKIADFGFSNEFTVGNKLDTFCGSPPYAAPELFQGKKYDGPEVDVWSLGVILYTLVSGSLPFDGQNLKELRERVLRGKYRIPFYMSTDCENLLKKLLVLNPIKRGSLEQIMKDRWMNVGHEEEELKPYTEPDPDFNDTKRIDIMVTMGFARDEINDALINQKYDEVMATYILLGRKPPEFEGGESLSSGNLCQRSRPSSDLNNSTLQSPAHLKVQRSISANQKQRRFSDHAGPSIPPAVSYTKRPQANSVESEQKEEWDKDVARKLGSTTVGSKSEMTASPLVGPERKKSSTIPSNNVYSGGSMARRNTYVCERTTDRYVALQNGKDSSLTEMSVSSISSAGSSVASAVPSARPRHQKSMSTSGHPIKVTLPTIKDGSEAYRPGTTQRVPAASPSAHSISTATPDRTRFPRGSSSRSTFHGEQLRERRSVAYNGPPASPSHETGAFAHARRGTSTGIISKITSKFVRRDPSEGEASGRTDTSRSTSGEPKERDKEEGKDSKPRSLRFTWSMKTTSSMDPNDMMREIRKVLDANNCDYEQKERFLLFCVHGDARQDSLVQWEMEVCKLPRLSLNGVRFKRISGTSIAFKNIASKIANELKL

Row | Compound | inhibition [1] [%] | inhibition [2] [%] | inhibition [3] | inhibition [4] [%] | inhibition [5] [%] | inhibition [6] [%] | inhibition [7] [%] | inhibition [8] [%] | inhibition [9] [%] | inhibition [10] [%] | inhibition [11] [%] | inhibition [12] [%] | inhibition [13] [%] | inhibition [14] [%] | inhibition [15] [%] | inhibition [16] [%] | inhibition [17] [%] | inhibition [18] [%]
1 | Nc1n[nH]c2nnc(-c3c(-c4ccccc4)nn4ccccc34)cc12 | -2.75 | -0.77 | Active | 5.76 | 16.1 | -0.45 | -4.95 | 16.3 | 5.12 | -1.99 | -6.2 | 27.3 | 2.04 | 6.59 | 9.19 | -5.26 | 0.21 | 4.57
2 | Oc1n[nH]c2nnc(-c3c(-c4ccccc4)nn4ccccc34)cc12 | -0.84 | 0.5 | Active | 0.79 | 10 | 3.01 | -4.85 | 10.4 | -0.68 | -2.58 | -0.63 | 3.42 | 4.47 | 6.97 | 17.4 | -5.6 | -0.26 | 2.81
